Our source for the EC50 values is US20130296311A1, “INHIBITORS OF HCV NS5A” (PRESIDIO PHARMACEUTICALS, INC., priority 2010, published 2013).

This assay deals with HCV 1b_Huh-Luc/Neo-ET cell line persistently expressing a bicistronic genotype 1b replicon in Huh 7 cells. Nature of the assay: HCV replicon assay (luciferase readout, 72 h). The note with it: Hepatitis C virus. Format: cell-based, HCV genotype 1b. A digest of the protocol: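 EC50 values come from a four-parameter fit of luciferase signal as % of untreated control, repeated across several determinations. The signal is from the HCV 1b_Huh-Luc/Neo-ET replicon line, dosed in triplicate one day post-plating and incubated 72 h before Bright-Glo readout.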

[1] abbreviates: Huh-7, 72 h, read-out: Inhibition of HCV genotype 1b.
Setting [2] is: Huh-7, read-out: Inhibition of HCV genotype 1b.

Where two headings read alike, the source gives them in different places.

For the compound `CC(C)(C)OC(=O)N[C@@H](C(=O)N1CCC[C@H]1CNC(=O)c1ccc(C#Cc2ccc(-c3cnc([C@@H]4CCCN4C(=O)[C@H](NC(=O)OC(C)(C)C)c4ccccc4)[nH]3)cc2)cc1)c1ccccc1` [Compound 192], the EC50 under setting [1] lay within 1 to 9.9 nM.
On the same count and under the same terms, with `O=C(Cc1cccnc1)N[C@@H](C(=O)N1CCC[C@H]1c1cc(-c2ccc(C#Cc3ccc(-c4cnc([C@@H]5CCCN5C(=O)[C@H](NC(=O)Cc5cccnc5)c5ccccc5)[nH]4)cc3)cc2)n[nH]1)c1ccccc1` [Compound 222] the figure was below 1 nM; with `COC(=O)N[C@@H](C(=O)N1CCC[C@H]1c1ncc(-c2ccc(C#Cc3ccc(-c4cnc([C@@H]5CCCN5C(=O)[C@H](NC(=O)OC)c5ccccc5)[nH]4)c(F)c3)cc2)[nH]1)c1ccccc1` [Compound 1013], below 1 nM.
Still for that read-out and setting: with `COC(=O)N[C@H](C(=O)N1CCC[C@H]1c1ncc(-c2ccc(C#Cc3ccc4c(c3)CCc3nc([C@@H]5CCCN5C(=O)[C@@H](NC(=O)OC)C(C)C)[nH]c3-4)cc2)[nH]1)C(C)C` [Compound 1094] the figure was below 1 nM.
The same measure, in the same setting: with `COC(=O)N[C@@H]1CCC[C@H]1C(=O)N1CCC[C@H]1c1ncc(-c2ccc(C#Cc3ccc4nc([C@@H]5CCCN5C(=O)[C@@H]5CCC[C@H]5NC(=O)OC)[nH]c4c3)cc2)[nH]1` [Compound 1058] the figure was 10 to 999 nM.
Consider `COC(=O)N[C@H](C(=O)N1CCC[C@H]1c1ncc(-c2ccc(C#Cc3ccc4nc([C@@H]5CCCN5C(=O)[C@@H](NC(=O)OC)C5CCOCC5)[nH]c4c3)cc2F)[nH]1)C1CCOCC1` [Compound 1070], for which the EC50 under setting [1] is below 1 nM.
As for `COC(=O)N[C@H](C(=O)N1CCN(C(=O)OC)C[C@H]1c1ncc(-c2ccc(C#Cc3ccc4nc([C@@H]5CCCN5C(=O)[C@@H](NC(=O)OC)C(C)C)[nH]c4c3)cc2)[nH]1)C(C)C` [Compound 1228], the EC50 under setting [2] is below 1 nM.
`COC(=O)N[C@H](C(=O)N1CCC[C@H]1c1ncc(-c2ccc(C#Cc3ccc4nc([C@@H]5CCCN5C(=O)[C@H](C(C)C)N(C)C)[nH]c4c3)cc2)[nH]1)C(C)C` [Compound 1021]: under setting [1], the EC50 was below 1 nM.
Same read-out and setting: with `COCCOc1c(C#Cc2ccc3nc([C@@H]4CCCN4C(=O)[C@@H](NC(=O)OC)C(C)C)[nH]c3c2)ccc(-c2cnc([C@@H]3CCCN3C(=O)[C@H](NC(=O)OC)C(C)C)[nH]2)c1OCCOC` [Compound 1066] the figure was below 1 nM; with `COC(=O)N[C@H](C(=O)N1CCC[C@H]1c1ncc(-c2ccc(C#Cc3ccc4nc([C@@H]5CCCN5C(=O)[C@@H](NC(=O)OC)C5CC5)[nH]c4c3)cc2)[nH]1)C1CC1` [Compound 1029], below 1 nM.
With `C=CC[C@H](NC(=O)OC)C(=O)N1CCC[C@H]1c1nc2ccc(C#Cc3ccc4c(c3)CCCc3nc([C@@H]5CCCN5C(=O)[C@@H](NC(=O)OC)C(C)C)[nH]c3-4)cc2[nH]1` [Compound 1283], the EC50 under setting [2] is below 1 nM.
For the compound `COC(=O)N[C@H](C(=O)N1CCC[C@H]1c1ncc(C#Cc2ccc3cc(-c4cnc([C@@H]5CCCN5C(=O)[C@@H](NC(=O)OC)C5CCOCC5)[nH]4)ccc3c2)[nH]1)C1CCOCC1` [Compound 1080], the EC50 under setting [1] is below 1 nM.
For `O=C(N[C@@H](C(=O)N1CCC[C@H]1c1ncc(-c2ccc(C#Cc3ccc(-c4cnc([C@@H]5CCCN5C(=O)[C@H](NC(=O)N5CCOCC5)c5ccccc5)[nH]4)cc3)cc2)[nH]1)c1ccccc1)N1CCOCC1` [Compound 248], the EC50 under setting [1] is below 1 nM.
As to `COC(=O)N[C@@H](C(=O)N1CCC[C@H]1c1ncc(C#Cc2ccc(-c3ccc(-c4cnc([C@@H]5CCCN5C(=O)[C@@H](c5ccccc5)N5CCCCC5)[nH]4)cc3)cc2)[nH]1)c1ccccc1` [Compound 752], the EC50 under setting [1] is below 1 nM.
Regarding `COC(=O)N[C@H](C(=O)N1CCC[C@H]1c1ncc(-c2ccc(C#Cc3ccc(-c4cnc([C@@H]5CCCN5C(=O)[C@H](NC(=O)N5CC[C@H](O)C5)c5ccccc5)[nH]4)cc3)cc2)[nH]1)C(C)C` [Compound 974], the EC50 under setting [1] was below 1 nM.
On the same count and under the same terms, with `COC(=O)N[C@@H](C(=O)N1CCC[C@H]1c1ncc(-c2ccc(C#Cc3ccc(-c4cnc([C@@H]5CCCN5C(=O)Nc5ccccc5)[nH]4)cc3)cc2)[nH]1)c1ccccc1` [Compound 196] the figure was 1 to 9.9 nM; with `COC(=O)N[C@@H](C(=O)N1CCC[C@H]1c1ncc(-c2ccc(C#Cc3ccc(-c4cnc([C@@H]5CCCN5C(=O)[C@H](NC(=O)N5CCC[C@@H]5CO)c5ccccc5)[nH]4)cc3)cc2)[nH]1)c1ccccc1` [Compound 254], below 1 nM.
Consider `COC(=O)N[C@H](C(=O)N1CCC[C@H]1c1ncc(-c2ccc3cc(C#Cc4[nH]c([C@@H]5CCCN5C(=O)[C@@H](NC(=O)OC)[C@@H](C)OC)nc4C(F)(F)F)ccc3c2)[nH]1)[C@@H](C)OC` [Compound 1255], for which, under setting [2], the EC50 is below 1 nM.
Consider `COC(=O)N[C@H](C(=O)N[C@@H](C)c1ncc(-c2ccc(C#Cc3ccc4nc([C@H](C)NC(=O)[C@@H](NC(=O)OC)C(C)C)[nH]c4c3)cc2)[nH]1)C(C)C` [Compound 868], for which, under setting [1], the EC50 was below 1 nM.
On the same count and under the same terms, with `COC(=O)N[C@H](C(=O)N1CCC[C@H]1c1ncc(-c2ccc(C#Cc3ccc(-c4cnc([C@H](C)NC(=O)[C@H](C(C)C)N(C)C)[nH]4)cc3)cc2)[nH]1)C(C)C` [Compound 981] the figure was 10 to 999 nM.
On the same count and under the same terms, with `CC[C@@H](C(=O)N1CCC[C@H]1c1ncc(-c2ccc(C#Cc3ccc(-c4cnc([C@@H]5CCCN5C(=O)[C@H](NC(=O)OC)c5ccccc5)[nH]4)cc3)cc2)[nH]1)c1ccccc1` [Compound 258] the figure was below 1 nM; with `CN1CCC(C(=O)N[C@@H](C(=O)N2CCC[C@H]2c2cc(-c3ccc(C#Cc4ccc(-c5cnc([C@@H]6CCCN6C(=O)[C@H](NC(=O)C6CCN(C)CC6)c6ccccc6)[nH]5)cc4)cc3)n[nH]2)c2ccccc2)CC1` [Compound 223-1], below 1 nM.
In the case of `COC(=O)N[C@@H](C(=O)N1CCC[C@H]1c1ncc(-c2ccc(C#Cc3ccc(-c4cnc([C@@H]5CCCN5C(=O)[C@H](NC(=O)N5CCCC5)c5ccccc5)[nH]4)cc3)cc2)[nH]1)c1ccccc1` [Compound 243], under setting [1], the EC50 is below 1 nM.
On the same count and under the same terms, with `COC(=O)N[C@@H](C(=O)N1CCC[C@H]1c1ncc(-c2ccc(C#Cc3ccc(-c4cnc([C@@H]5CCCN5C(=O)[C@@H](c5ccccc5)N5CCCCC5)[nH]4)cc3)cc2)[nH]1)c1ccccc1` [Compound 188] the figure was below 1 nM; with `C[C@@H](NC(=O)C1CC1)C(=O)N1CCC[C@H]1c1ncc(C#Cc2ccc(-c3cnc([C@@H]4CCCN4C(=O)[C@@H](C)NC(=O)C4CC4)[nH]3)cc2)[nH]1` [Compound 111], 1 to 9.9 nM; with `COC(=O)N[C@@H](C(=O)N1CCC[C@H]1C(=O)Nc1ccc(C#Cc2ccc(-c3cnc([C@@H]4CCCN4C(=O)[C@H](NC(=O)OC)c4ccccc4)[nH]3)cc2)cc1)c1ccccc1` [Compound 171], below 1 nM.
For `COC(=O)N[C@H](C(=O)N1CCC[C@H]1c1ncc(-c2ccc(C#Cc3ccc(-c4cnc([C@@H]5CCCN5C(=O)[C@@H](NC(=O)OC)C5CCOCC5)[nH]4)cc3)cc2)[nH]1)C1CCOCC1` [Compound 1218], under setting [2], the EC50 was below 1 nM.
As to `COC(=O)N[C@@H](C(=O)N1CCC[C@H]1c1ncc(-c2ccc(C#Cc3ccc(C(=O)NC[C@@H]4CCCN4C(=O)[C@H](NC(=O)N4CCOCC4)c4ccccc4)cc3)cc2)[nH]1)c1ccccc1` [Compound 235], the EC50 under setting [1] is below 1 nM.
Take `COC(=O)N[C@H](C(=O)N1CCC[C@H]1c1ncc(-c2ccc(C#Cc3ccc(-c4cnc([C@@H]5CCCN5C(=O)[C@@H](NC(=O)OC)C5CCOCC5)[nH]4)cc3)cc2)[nH]1)C1CCCC1` [Compound 1221]: the EC50 under setting [2] was below 1 nM.
